In paper PMC12864978, “Covalent modification of a glutamic acid inspired by HaloTag technology” (Nature Communications, 2026):

Assays:
[1] = target: Jurkat cell lysate proteome (Homo sapiens, UniProt Q9H583); assay: In-lysate thermal proteome profiling (TPP)
Method: (§1) Jurkat cells were grown to a density of 1.0–2.5 × 10⁶ cells/ml. A 100 ml aliquot of the suspension was divided equally into two Falcon tubes and chilled on ice for 2 min. Cells were pelleted by centrifugation at 350×g for 3 min at room temperature. After discarding the supernatant, the combined pellet was resuspended in 25 ml of ice-cold PBS buffer. The washing step—centrifugation at 350×g for 2 min at room temperature, followed by supernatant removal—was further repeated twice. Following the final wash, the cell pellet was resuspended in 1.5 ml of PBS containing 0.4% (v/v) NP40 alternative and flash-frozen in liquid nitrogen. […] The resulting lysate was separated by ultracentrifugation at 100,000×g for 20 min at 4 °C (Beckman Coulter Optima MAX-XP, MLA-80 rotor). The supernatant was carefully collected, snap-frozen in liquid nitrogen, and stored at −80 °C for subsequent analysis.
(§2) Protein concentration was quantified using the Bradford protein assay. […] Following incubation, each aliquot was further subdivided into nine 120 µl portions in PCR tubes. […] For analysis, 75 µl of each supernatant was allocated for mass spectrometry-based thermal protein profiling (TPP), while the remaining 25 µl was used for immunoblotting to assess PDEδ levels.
(§3) For mass spectrometric analysis, sample processing was further proceeded with reduction and alkylation, followed by acetone precipitation and tryptic digestion. Each digested aliquot was then labelled with isobaric TMT reagents (Thermo Fisher Scientific, A52047) corresponding to its specific temperature condition from the thermal shift assay.
(§4) Proteins were considered as stabilised or destabilised when, in all three replicates,
(§5) tailed p-values were determined by applying paired t-test comparing AUC of melting curves
(§6) between DMSO-treated and compound-treated conditions, OR
(§7) least ± 10 % (same direction) compared to the DMSO control.

[2] = target: Jurkat cell lysate proteome (Homo sapiens, UniProt O43924); assay: In-lysate thermal proteome profiling (TPP); details: 10 µM, 15 min
Method: as §1, §2, §3, §4, §5, §6, §7

[3] = target: T1, Jurkat cell lysate proteome (Homo sapiens, UniProt Q9H2H9); assay: In-lysate thermal proteome profiling (TPP)
T1 sequence (Q9H2H9 1-487): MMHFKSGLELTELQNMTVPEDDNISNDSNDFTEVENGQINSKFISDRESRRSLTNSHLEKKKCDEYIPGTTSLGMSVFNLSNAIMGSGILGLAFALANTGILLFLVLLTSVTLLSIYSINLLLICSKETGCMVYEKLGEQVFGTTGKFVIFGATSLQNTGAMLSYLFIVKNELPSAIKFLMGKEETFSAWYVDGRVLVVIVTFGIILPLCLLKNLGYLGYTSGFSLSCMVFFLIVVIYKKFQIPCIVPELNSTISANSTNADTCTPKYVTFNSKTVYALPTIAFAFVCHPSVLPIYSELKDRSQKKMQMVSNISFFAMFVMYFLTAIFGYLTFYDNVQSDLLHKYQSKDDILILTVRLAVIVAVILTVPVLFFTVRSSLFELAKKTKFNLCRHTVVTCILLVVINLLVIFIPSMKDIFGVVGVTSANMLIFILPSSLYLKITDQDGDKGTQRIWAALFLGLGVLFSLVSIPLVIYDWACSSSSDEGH
Method: as §1, §2, §3, §4, §5, §6, §7

[4] = target: Jurkat cell lysate proteome (Homo sapiens, UniProt P49773); assay: In-lysate thermal proteome profiling (TPP)
Jurkat cell lysate proteome (Homo sapiens, UniProt P49773), sequence (P49773 whole entry): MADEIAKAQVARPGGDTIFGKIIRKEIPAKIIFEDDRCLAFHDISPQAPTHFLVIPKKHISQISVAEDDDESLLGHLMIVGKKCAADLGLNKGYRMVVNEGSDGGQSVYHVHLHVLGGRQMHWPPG
Method: as §1, §2, §3, §4, §5, §6, §7

[5] = target: T2, Jurkat cell lysate proteome (Homo sapiens, UniProt Q99523); assay: In-lysate thermal proteome profiling (TPP)
T2 sequence (Q99523 78-831): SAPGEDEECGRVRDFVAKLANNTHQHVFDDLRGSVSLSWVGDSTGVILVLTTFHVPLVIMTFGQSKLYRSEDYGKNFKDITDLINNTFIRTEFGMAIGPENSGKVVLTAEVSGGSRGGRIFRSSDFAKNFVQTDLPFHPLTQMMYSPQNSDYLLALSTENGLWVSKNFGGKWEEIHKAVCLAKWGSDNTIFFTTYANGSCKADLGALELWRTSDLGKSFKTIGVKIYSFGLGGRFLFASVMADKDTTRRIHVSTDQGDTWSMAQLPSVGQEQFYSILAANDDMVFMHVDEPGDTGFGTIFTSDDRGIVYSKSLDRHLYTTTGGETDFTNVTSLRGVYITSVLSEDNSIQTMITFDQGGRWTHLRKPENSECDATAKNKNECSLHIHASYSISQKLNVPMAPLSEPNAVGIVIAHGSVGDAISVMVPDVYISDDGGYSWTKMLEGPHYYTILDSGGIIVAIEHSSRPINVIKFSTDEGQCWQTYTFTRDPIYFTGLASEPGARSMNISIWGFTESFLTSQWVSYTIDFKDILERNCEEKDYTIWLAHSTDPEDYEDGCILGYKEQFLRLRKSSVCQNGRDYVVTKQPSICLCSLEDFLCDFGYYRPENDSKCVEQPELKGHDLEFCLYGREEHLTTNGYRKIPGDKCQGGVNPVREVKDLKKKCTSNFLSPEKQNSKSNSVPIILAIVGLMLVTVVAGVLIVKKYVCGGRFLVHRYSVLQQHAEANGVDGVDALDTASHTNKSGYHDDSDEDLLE
Method: as §1, §2, §3, §4, §5, §6, §7

[6] = target: T3, PDEδ in the presence of Arl2•GppNHp (Homo sapiens, UniProt O43924); assay: Kinetics of covalent modification of PDEδ by MALDI in the presence of Arl2•GppNHp; assay type: binding; details: PDEδ: Arl2•GppNHp = 1:1, 3 eq. of 6a
T3 construct: His tag; made in house; host or cells: Escherichia coli Rosetta (BL21DE3), pET plasmids
T3 sequence (O43924 whole entry): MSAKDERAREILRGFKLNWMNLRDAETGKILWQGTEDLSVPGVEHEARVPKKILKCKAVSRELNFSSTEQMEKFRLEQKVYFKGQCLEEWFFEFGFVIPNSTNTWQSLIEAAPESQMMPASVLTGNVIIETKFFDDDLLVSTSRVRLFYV
From the text: Data are presented as mean ± s.e.m.
The solution was briefly centrifuged before a sample was taken at the designated time for analysis by MALDI. […] Mass spectra were obtained over the m/z range 15,000–25,000 using a Bruker UltrafleXtreme XIAL DI-TOF/TOF mass spectrometer. Percentages of covalent adduct formation were estimated by the relative intensity of the respective peaks in MALDI spectra.

Jurkat cell lysate proteome (Homo sapiens, UniProt Q9H583), sequence (Q9H583 whole entry): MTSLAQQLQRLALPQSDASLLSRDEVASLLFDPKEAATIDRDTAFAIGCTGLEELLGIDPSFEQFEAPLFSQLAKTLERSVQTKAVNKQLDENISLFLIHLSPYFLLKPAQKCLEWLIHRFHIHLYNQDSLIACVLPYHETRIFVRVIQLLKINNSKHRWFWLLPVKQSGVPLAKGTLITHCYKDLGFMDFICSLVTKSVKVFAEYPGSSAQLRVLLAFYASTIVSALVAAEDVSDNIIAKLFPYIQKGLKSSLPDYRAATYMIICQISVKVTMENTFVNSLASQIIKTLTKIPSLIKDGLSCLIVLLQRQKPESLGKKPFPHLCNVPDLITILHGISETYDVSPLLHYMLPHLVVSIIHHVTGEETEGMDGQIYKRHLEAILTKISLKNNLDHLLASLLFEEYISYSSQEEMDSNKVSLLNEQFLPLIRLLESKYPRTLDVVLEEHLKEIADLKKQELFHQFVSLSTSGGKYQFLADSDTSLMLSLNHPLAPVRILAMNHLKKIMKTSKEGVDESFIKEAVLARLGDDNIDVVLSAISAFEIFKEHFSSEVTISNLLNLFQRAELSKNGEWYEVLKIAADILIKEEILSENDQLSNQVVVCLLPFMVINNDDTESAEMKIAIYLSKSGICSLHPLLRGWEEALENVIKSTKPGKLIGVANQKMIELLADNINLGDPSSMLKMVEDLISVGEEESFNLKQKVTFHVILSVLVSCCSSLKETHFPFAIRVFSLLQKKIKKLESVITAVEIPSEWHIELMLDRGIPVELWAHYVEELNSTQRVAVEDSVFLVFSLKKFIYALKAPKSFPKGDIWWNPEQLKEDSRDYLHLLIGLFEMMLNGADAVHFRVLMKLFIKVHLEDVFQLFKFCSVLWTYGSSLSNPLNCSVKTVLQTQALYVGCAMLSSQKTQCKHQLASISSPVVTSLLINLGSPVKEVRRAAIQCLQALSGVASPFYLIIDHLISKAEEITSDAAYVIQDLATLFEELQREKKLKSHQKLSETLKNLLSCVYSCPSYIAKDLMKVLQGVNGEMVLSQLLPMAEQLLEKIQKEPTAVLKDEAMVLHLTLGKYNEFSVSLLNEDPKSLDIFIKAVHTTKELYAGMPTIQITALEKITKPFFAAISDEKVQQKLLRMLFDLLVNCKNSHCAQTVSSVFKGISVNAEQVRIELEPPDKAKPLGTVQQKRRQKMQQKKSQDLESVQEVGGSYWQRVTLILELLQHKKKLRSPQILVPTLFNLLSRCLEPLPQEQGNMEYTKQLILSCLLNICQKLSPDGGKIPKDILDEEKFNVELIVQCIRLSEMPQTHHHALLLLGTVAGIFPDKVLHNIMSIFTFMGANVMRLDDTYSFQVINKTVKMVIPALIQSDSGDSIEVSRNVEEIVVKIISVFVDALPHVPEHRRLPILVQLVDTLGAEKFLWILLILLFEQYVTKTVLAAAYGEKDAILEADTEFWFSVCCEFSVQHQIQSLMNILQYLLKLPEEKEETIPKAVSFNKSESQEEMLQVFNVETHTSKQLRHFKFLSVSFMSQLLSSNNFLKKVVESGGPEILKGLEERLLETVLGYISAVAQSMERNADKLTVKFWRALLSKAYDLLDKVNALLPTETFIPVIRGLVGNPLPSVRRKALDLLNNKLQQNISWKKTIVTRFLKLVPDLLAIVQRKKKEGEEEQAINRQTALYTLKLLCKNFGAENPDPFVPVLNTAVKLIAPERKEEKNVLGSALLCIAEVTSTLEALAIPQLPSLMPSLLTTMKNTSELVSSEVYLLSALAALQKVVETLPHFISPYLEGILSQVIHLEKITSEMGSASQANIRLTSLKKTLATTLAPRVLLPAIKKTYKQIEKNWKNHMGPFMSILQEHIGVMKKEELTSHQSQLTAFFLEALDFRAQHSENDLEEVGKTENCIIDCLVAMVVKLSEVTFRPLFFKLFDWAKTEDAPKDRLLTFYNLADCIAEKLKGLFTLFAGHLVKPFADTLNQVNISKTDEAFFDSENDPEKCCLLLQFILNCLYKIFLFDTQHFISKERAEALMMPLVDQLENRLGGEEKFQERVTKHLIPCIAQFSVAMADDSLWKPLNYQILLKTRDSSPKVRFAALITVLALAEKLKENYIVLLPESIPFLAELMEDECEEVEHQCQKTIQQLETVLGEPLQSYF
Jurkat cell lysate proteome (Homo sapiens, UniProt O43924), sequence (O43924 whole entry): as the sequence (O43924 whole entry) above

## Cc1ccc(-n2nc3c(=O)n(CCCCS(=O)(=O)N(CCc4cccc(CCBr)c4)CC4CCNCC4)nc(C)c3c2C)cc1 [6a]
[1]; 10 µM, 15 min
  ΔAUC HEATR1: -2.9
  ΔI67°C HEATR1: -8 ± 6%
[1]; read-out: ΔTm HEATR1, 10 µM, 15 min
  ΔTm at 10 µM: -2.8 ± 1.1 °C
[2]
  ΔI67°C PDE6D: 21 ± 7%
[3]; 10 µM, 15 min
  ΔAUC SLC38A1: -3.3
  ΔI67°C SLC38A1: -13 ± 5%
[3]; read-out: ΔTm SLC38A1, 10 µM, 15 min
  ΔTm at 10 µM: -3.1 ± 0.5 °C
[4]; 10 µM, 15 min
  ΔAUC HINT1: 3.6
  ΔI67°C HINT1: 3 ± 6%
[4]; read-out: ΔTm HINT1, 10 µM, 15 min
  ΔTm at 10 µM: 4 ± 1.4 °C
[5]; 10 µM, 15 min
  ΔAUC SORT1: -3.6
  ΔI67°C SORT1: -16 ± 7%
[5]; read-out: ΔTm SORT1, 10 µM, 15 min
  ΔTm at 10 µM: -2.2 ± 2.4 °C
[6]
  rate of covalent PDEδ modification in the presence of Arl2•GppNHp: comparable rate
